Measured values published in patent US11980592B2, “Cannabinoid-containing complex mixtures for the treatment of neurodegenerative diseases” (GBS GLOBAL BIOPHARMA, INC., priority 2016, dated 2024).

System: Cath.a cells
Experiment: TRPV1-induced calcium-mediated cell death (Trypan Blue positivity)
Type: cell-based
Description: We therefore studied susceptibility of HEK wild type cells, TRPV1 overexpressing HEK cells, and Cath.a cells to TRPV1-induced calcium-mediated cell death.
Cells were plated into tissue culture dishes and treated with either vehicle (HEK wild type and Cath.a) or tetracycline (1 micromolar) for 16 h to induce TRPV1 expression (HEK-TRPV1) at 37° C. in a […] atmosphere. After washing, media were replaced with a modified sodium Ringer solution containing 3% FBS and either 10 millimolar CaCl2 or zero added CaCl2 and 1 millimolar EGTA. […] After 2 minutes, aliquots of 7 microliters of cell suspension were counted in a hemocytometer and field of at least 200 cells were scored for Trypan Blue positive or negative status.

For `COc1cc(CNC(=O)CCCC/C=C/C(C)C)ccc1O` [capsaicin], which “cell death (trypan blue positivity) in Cath.a cells” value (10 mM external CaCl2, 80 min after stimulation with 250 nM capsaicin) is on record?
The value was “can induce cell death”.

And the “cell death (percent trypan blue positive cells) in Cath.a cells in the absence of external calcium” value (no external calcium, 80 min after stimulation with 250 nM capsaicin)?
Its value is “dependent upon the presence of external calcium”.
